Laboratory results: patent US20050272682A1, “SiRNA targeting PI3K signal transduction pathway and siRNA-based therapy” (priority 2004, published 2005)

How the values were obtained:
DSS-induced colitis mice [1] = assay: DSS-induced colitis in mice, wortmannin by oral gavage; format: in vivo; details: DSS 5% 7 days, wortmannin 1.5 mg/kg oral gavage daily from day 2; day 7; DSS alone mean DAI 4; scale 0 to 4
Procedure: (§1) 60 male C57/bl6 mice aged 8 weeks and weighed around 20 g were administered with 5% (w/v) dextran sulfate sodium (DSS) in drinking water for 7 days. DSS used was 5000 MW sulfated polysaccharide (Sigma Chemical Co., St. Louis, Mo.). It is believed that DSS has direct cytotoxic effects on epithelial cells, immune cell function interference, and luminal microflora. DSS-induced inflammatory bowel disease (IBD) was characterized by epithelial damage, mucosal inflammatory infiltrates, and luminal ulceration similar to ulcerative colitis (see FIG. 1, panels A and B).
A validated clinical disease activity index (DAI) (Murano, et al., 2000; Murthy, et al., 1993) ranging from a score of 0 to 4 was calculated by an investigator blinded to the protocol using the following parameters: stool consistency, presence of fecal blood, and changes in body weight (Murano, et al., 2000). The stool consistency was assessed using the following four point scale: 0, normal; 1, soft; 2, very soft but formed; and 3, liquid. The intensity of the hemoccult paper test was scored by the following scale: 0, negative; 1, faintly blue; 2, moderately blue; 3, dark blue; and 4, blood visible. […]
Histology sections of large intestine were stained with H&E to evaluate degree of inflammatory changes in the mice before and after the wortmannin treatment. Neutrophil sequestration was assessed through MPO assay. […]

[2] = tested on: severe acute pancreatitis mice; assay: CMDE diet model of severe acute pancreatitis in mice; format: in vivo
Procedure: Choline and methionine deficient with ethionine (CMDE) was used to generate pancreatitis model in mice. Female Swiss-Webster mice were divided into two groups: control siRNA or p85α siRNA treatment group. Mice were injected with 10 μg control or p85α siRNA 3 days before and 1 day after starting experiment using hydrodynamic tail vein method. Mice were fed CMDE diet for 3 days. Ethionine (250 mg/kg, twice a day) was fed via gavage. After being fed with CMDE diet for 3 days, mice were fed with regular lab food. The mortality for 7 days was assessed in both groups.

DSS-induced colitis mice [3] = assay: DSS-induced colitis in mice, intrarectal siRNA; format: in vivo
Procedure: as §1
A validated clinical disease activity index (DAI) (Murano, et al., 2000; Murthy, et al., 1993) ranging from a score of 0 to 4 was calculated by an investigator blinded to the protocol using the following parameters: stool consistency, presence of fecal blood, and changes in body weight (Murano, et al., 2000). The stool consistency was assessed using the following four point scale: 0, normal; 1, soft; 2, very soft but formed; and 3, liquid. The intensity of the hemoccult paper test was scored by the following scale: 0, negative; 1, faintly blue; 2, moderately blue; 3, dark blue; and 4, blood visible.
(§2) Inflammatory bowel disease (IBD) was induced in 2-month-old C57/bl6 mice using a 5% dextran sulfate sodium (DSS) solution in drinking water. siRNA directed to either p85α or Akt1 or siCONTROL was given on days 2, 3 and 4 of DSS exposure. Due to the short half-life of siRNA in vivo, siSTABLE was used which renders siRNA more resistant to degradation resulting in a half-life of 5 days. For each mouse, 5 μg of siRNA in 25 μl of transfection buffer was transferred into a sterile Eppendorf tube. In a separate sterile polystyrene tube 20 μg of DOTAP was mixed with 70 μl transfection buffer and then the siRNA mixture was transferred to the polystyrene tube containing the DOTAP and then incubated at room temperature for 30 min. Around 100 μl of the mixture was administered via the anus, by slow instillation into the lumen of the colon using a 20-gauge catheter and a 1-ml syringe. After treatment, mice were suspended head down for 30 sec. The colonic enema was performed on the second day of DSS exposure and repeated 24 and 48 h later. Cy-3 labeled siRNA were prepared for the treatment and administered as described above; mice were sacrificed at 4 and 24 hours after treatment and spleen, liver, pancreas and colon samples organs were taken and then frozen in liquid N2. Sections (6 μm) were cut with a cryostat microtome, thaw-mounted on a glass slide (cleaned with ethanol) and analyzed by fluorescent light microscopy (excitation λ=570 ηm).
Neutrophil sequestration was measured by MPO activity determination using the O-dianisidine method as previously described (Barone, et al., 1991). Whole tissue protein (100 μg) extract was used to measure the MPO activity. Activity was expressed as the amount of enzyme necessary to generate a change in absorbance of 1.0 per min per mg wet weight of tissue.
Tissue protein (100 μg) was placed in 96-well plates. Expression of IL-1β and IL-6, TNFα, and p65 NF-κB protein in whole tissue lysates was determined using anti-mouse cytokine ELISA kits from Pierce Biotechnology, Inc. (Rockford, Ill.) as previously described (Slogoff, et al., 2004). Cytokine expression of MIP-2 was determined with an anti-mouse MIP-2 ELISA purchased from Assay Designs, Inc. (Ann Arbor, Mich.). Each ELISA was performed according to the manufacturer's instructions.
Excised colons were evaluated for approximate length, for blood content, stool consistency, and general appearance of bowel wall. Histological examination was performed on three samples of the colon from each animal. The samples were fixed in 10% buffered formalin, dehydrated in ethanol, and then embedded in paraffin. Sections (4 μm) were then prepared and stained with hematoxylin and eosin.

PI3K/Akt pathway = assay: Western blot of colon from mice given DSS and intrarectal siRNA; format: in vivo
Procedure: as §2
Western immunoblot analyses were performed as described previously (Wang, et al., 2002). Individual colon samples were homogenized using a Polytron power homogenizer in cell lysis buffer at 4° C. for 30 min. Lysates were clarified by centrifugation (8,000 g for 20 min at 4° C.), and sonicated for 30-45 sec on ice. Protein concentrations were determined using the method of Bradford (1976). Total protein (100 μg) was resolved on a 10% polyacrylamide gel and transferred to Immobilon-P […] membranes as described previously (Wang, et al., 2002). Filters were incubated overnight at 4° C. in blocking solution followed by a 1-h incubation with primary antibodies. Filters were washed three times in blocking solution and incubated with horseradish peroxidase-conjugated secondary antibody for 1 h. After three additional washes, the immune complexes were visualized by enhanced chemiluminescence (ECL) from Amersham (Arlington Heights, Ill.).

KM20 cells = assay: DNA fragmentation assay (Cell Death Detection ELISA), KM20 cells; format: cell-based, human; details: TRAIL 100 ng/mL
Procedure: (§3) Cells were transfected with pik3r1, Akt1 or scrambled siRNA. After 48 h, adherent cells were detached by rapid trypsinization, counted in a Hausser chamber and seeded at a density of 2×10^3 cells per well in 96-well flat-bottom microtiter plates and incubated in 250 μl of growth medium for 24 h at 37° C. Media were removed and either new complete media or TRAIL (100 ng/mL) was added in a final volume of 200 μL and allowed to grow for 24 h at 37° C. After treatment, DNA fragmentation was evaluated by examination of cytoplasmic histone-associated DNA fragments (mono- and oligonucleosomes) using a Cell Death Detection ELISA^Plus kit (Roche Molecular Biochemicals) according to the manufacturer's instructions and as previously described (Wang. et al., 2002). The experiments were repeated on at least 3 separate occasions.

KM12C cells = assay: DNA fragmentation assay (Cell Death Detection ELISA), KM12C cells; format: cell-based, human; details: TRAIL 100 ng/mL
Procedure: as §3

[4] = DSS, after day 3, values near control levels by day 7
[5] = colon, compared to DSS+control siRNA

`COC[C@H]1OC(=O)c2coc3c2[C@@]1(C)C1=C(C3=O)[C@@H]2CCC(=O)[C@@]2(C)C[C@H]1OC(C)=O` [wortmannin, Wortmannin] was tested, and the “mean DAI score” value (DSS-induced colitis mice [1]) was 2.

In the case of “p85α siRNA: siSTABLE siRNA duplex to Mus musculus p85α mRNA; sense gcagcaaccgaaacaaagcuu (SEQ ID NO:2), antisense gcuuuguuucgguugcugcuu (SEQ ID NO:3) (sense GCAGCAACCGAAACAAAGCUU; antisense GCUUUGUUUCGGUUGCUGCUU; siSTABLE chemically modified siRNA, pattern not given here)”, the “edema and bleeding in pancreas” value ([2]; 10 μg siRNA by hydrodynamic tail vein 3 days before and 1 day after start) is reported as “no edema and bleeding”, the “mice died (mortality)” value ([2]; after 7 days) is reported as 30% and the “gross changes in the colon associated with DSS treatment (shortening, intraluminal hemorrhage, necrosis)” value (DSS-induced colitis mice [3]; 5 μg siRNA with DOTAP intrarectally on days 2, 3 and 4 of DSS) is reported as “abrogated”. For the same molecule, the “preventing the bowel shortening, mucosal wall thinning and blood in the colon (comparison of the two siRNA)” value (DSS-induced colitis mice [3]; DSS, intrarectal siRNA) was “more effective than siRNA to Akt1”, the “disease activity index (DAI), course” value (DSS-induced colitis mice [3]; [4]) was “stabilized and then improved” and the “weight loss, course” value (DSS-induced colitis mice [3]; [4]) was “stabilized and then improved”. For the same molecule, the “cytokine tissue levels (IL-1β, IL-6, MIP-2, TNFα)” value (DSS-induced colitis mice [3]; [5]) was “significantly attenuated”, the “neutrophil sequestration (MPO activity)” value (DSS-induced colitis mice [3]; [5]) was “significantly attenuated” and the “p65 NF-κB activity” value (DSS-induced colitis mice [3]; [5]) was “significantly attenuated”. For the same molecule, the “leukocyte infiltration and mucosal damage (colonic histology)” value (DSS-induced colitis mice [3]; compared with DSS and control siRNA) was “decreased”, the “Akt expression in colon” value (PI3K/Akt pathway) was “not altered” and the “p110δ expression in colon” value (PI3K/Akt pathway) was “not altered”. For the same molecule, the “p85α expression in colon” value (PI3K/Akt pathway; normal and DSS-treated colon) was “decreased” and the “pAkt expression in colon” value (PI3K/Akt pathway; untreated and DSS-treated colon) was “decreased”.

With Z-DEVD-fmk [reference compound] the “induction of apoptosis mediated by the combination of TRAIL and pik3r1 or Akt1 siRNA” value (KM20 cells; KM20 cells pretreated with the caspase-3 inhibitor) was “completely blocked”.

B1: TNF-related apoptosis-inducing ligand (protein, UniProt P50591 1-281, looked up)
Tumor necrosis factor ligand …: MAMMEVQGGPSLGQTCVLIVIFTVLLQSLCVAVTYVYFTNELKQMQDKYSKSGIACFLKEDDSYWDPNDEESMNSPCWQVKWQLRQLVRKMILRTSEETISTVQEKQQNISPLVRERGPQRVAAHITGTRGRSNTLSSPNSKNEKALGRKINSWESSRSGHSFLSNLHLRNGELVIHEKGFYYIYSQTYFRFQEEIKENTKNDKQMVQYIYKYTSYPDPILLMKSARNSCWSKDAEYGLYSIYQGGIFELKENDRIFVSVTNEHLIDMDHEASFFGAFLVG
notes: apoptosis-inducing agent
For B1, the “effect of TRAIL alone on cell growth” value (KM12C cells) was “no effect” and the “effect of TRAIL alone on cell growth” value (KM20 cells; KM20 cells) was “no effect”.
